# Results as given in patent US20110046070A1, “GENE EXPRESSION INHIBITOR SELECTIVE FOR MATRIX METALLOPROTEINASE-9 GENE” (priority 2008, published 2011).
# Key:
# [1] = system: human uterine cervix cancer HeLa cells; assay: Wound-healing migration assay, HeLa; type: cell-based; settings: 48 hours after the damage, various concentrations
# Procedure: (§1) A human breast cancer MDA-MB-231 cell strain was used. The cells were cultured at 37° C. in a humid environment containing 5% CO^2 in an RPMI1640 medium (Sigma-Aldrich Corp., St. Louis, Mo., USA) supplemented with 100 μg/ml streptomycin, 100 units/ml penicillin and 10% fetal bovine serum (FBS) (Sigma-Aldrich Corp.). Human uterine cervix cancer HeLa cells were cultured in a Dulbecco's modified Eagle medium (DMEM, Invitrogen Life Technologies, Corp., Carlsbad, Calif.) containing 10% FBS and 2 mM L-glutamine.
# (§2) To assay cellular migration in the process of wound healing, 3×10^5 cells were inoculated to each well of an 8-well chamber slide, and the cell layer was damaged using a plastic micropipette when the cells reached confluence. The medium and debris were removed by suction, and 100 μl of a fresh medium containing various polyamides was replaced therefor. 48 hours after the damage, the cells were fixed with Diff-Quik solution (SYSMEX INTERNATIONAL REAGENTS CO., LTD., Kobe, Japan), then stained, and photographed using a phase-contrast microscope.
# MDA-MB-231 cells [2] = assay: Growth inhibition assay, MDA-MB-231; type: cell-based, human; settings: MDA-MB-231, 0 μM to 30 μM, 72 hours, WST-8
# Procedure: (§3) Cell growth inhibition test was conducted using MDA-MB-231 and HeLa cells. The HeLa cells were inoculated at a concentration of 2500 cells/well to a 96-well microtiter plate and incubated for 24 hours in 100 μl of Dulbecco's modified Eagle medium (DMEM) containing 10% fetal bovine serum (Invitrogen). Then, after medium replacement, the cells were cultured for 72 hours in a medium supplemented with 10% fetal bovine serum containing 0 μM to 30 μM (0 μM, 0.3 μM, 1 μM, 3 μM, 10 μM and 30 μM) polyamide HMMP9NFκβ, and 10 μl of live cell counting reagent SF (Nacalai Tesque, Inc.) was added thereto, followed by 2-hour color reaction. Absorbance was measured at 450 nm using an ARVO microtiter plate reader. This experiment was conducted by modified MTT assay (WST-8 ™: Nacalai Tesque, Inc.) using water-soluble formazan.
# [3] = system: MMP-9 mRNA in MDA-MB-231 cells; assay: Real-time RT-PCR assay (mRNA expression assay); type: cell-based, human; settings: 48 hours, MDA-MB-231, vs DMSO control, normalized to GAPDH
# Procedure: MDA-MB-231 cells were treated with each polyamide of the present invention at various concentrations. 48 hours after the treatment, cell fractions were subjected to RNA separation using a TRIzol reagent (Invitrogen Life Technologies, Corp.) according to the manufacturer's manual. RNA was treated with DNase prior to cDNA synthesis. Complementary DNA strands were synthesized by reverse transcription using SuperScript™ First-Strand kit (Invitrogen Life Technologies, Corp.). In real-time RT-PCR (Thermal cycler Dice Real Time system TP800, Takara Bio Inc., Japan), SYBR Premix Ex Taq Kit (Takara Bio Inc.) was used. Primers for HMMP9AP1 (forward, 5′-[…]-3′, SEQ ID NO: 12; reverse 5′-[…]-3′, SEQ ID NO: 13; 236 bp) and internal standard human endogenous glyceraldehyde-3-phosphate dehydrogenase (GADPH; forward, 5′-[…]-3′, SEQ ID NO: 14; reverse, 5′-TGGTGAAGACGCCAGTGGA-3′, SEQ ID NO: 15; 138 bp) were used. Moreover, primers for HMMP9NFKκβ (forward, 5′-[…]-3′, SEQ ID NO: 16; reverse, 5′-[…]-3′, SEQ ID NO: 17; 236 bp) and internal standard human endogenous glyceraldehyde-3-phosphate dehydrogenase (GADPH; forward, 5′-[…]-3′, SEQ ID NO: 18; reverse, 5′-TGGTGAAGACGCCAGTGGA-3′, SEQ ID NO: 19; 138 bp) were used. 25 μl of two-step RT-PCR mixture consists of 12.5 μl of SYBR Premix Ex TAq, 0.5 μl each of forward and reverse primers, 10.5 μl of RNase-free water and 1 μl of template cDNA. The real-time cycle conditions were performed by a reaction system involving 95° C. for 10 seconds, 95° C. for 5 seconds and 60° C. for 30 seconds. The quantification of the MMP-9 gene was normalized by comparison with GAPDH expression.
# MDA-MB-231 cells [4] = assay: Invasion assay into matrigel, MDA-MB-231; type: cell-based, human; settings: 22 hours
# Procedure: Cell invasion assay was conducted using a 24-well cell culture BioCoat matrigel invasion chamber (BD Biosciences, Discovery Labware, Bedford, Mass., USA). MDA-MB-231 cells (1×10^3 cells/well) or HeLa cells (1×10^3 cells/well) were suspended in an RPMI1640 or DMEM medium containing 0.1% FBS and added to the upper chamber. An RPMI1640 or DMEM medium containing 5% FBS was added to the lower chamber. Then, the cells were cultured at 37° C. for 22 hours in a 5% CO2 environment. Noninvasive cells remaining on the membrane were wiped off using a cotton swab. Invasion cells were fixed and stained with a Diff-Quik kit. The number of cells invading the membrane was determined in mean±standard deviation from a total of 3 membranes by counting in 10 fields of view per membrane using an optical microscope (200× magnification).
# The degradation of constitutive proteins of extracellular matrix is important for the invasion of tumor cells. To evaluate the influence of HMMP9AP1 and HMMP9NFκβ, the MMP9 Py-Im polyamides of the present invention, on the invasion of tumor cells, 5×10^3 MDA-MB-231 cells were incubated with each polyamide at various concentrations for 22 hours. The invasiveness of cells treated with DMSO or each polyamide of the present invention was compared in MDA-MB-231 cells. The DMSO-treated MDA-MB-231 cells remarkably invaded the transparent membrane coated with matrigel. […] In contrast, the cells treated with the HMMP9AP1 or HMMP9NFκβ of the present invention had much lower invasion into the membrane.
# [5] = system: human breast cancer MDA-MB-231 cells; assay: Wound-healing migration assay, MDA-MB-231; type: cell-based; settings: 48 hours after the damage, various concentrations, vs DMSO
# Procedure: as §1, §2
# HeLa cells = assay: Growth inhibition assay, HeLa; type: cell-based, human; settings: 0 μM to 30 μM, 72 hours, WST-8
# Procedure: as §3
Compound,migration of HeLa cells [1],number of live cells (growth inhibition) (MDA-MB-231 cells [2]),decrease of the expression level of MMP-9 mRNA ([3]; 0.3 μM) [%],decrease of the expression level of MMP-9 mRNA ([3]; 1 μM) [%],decrease of the expression level of MMP-9 mRNA ([3]; 3 μM) [%],decrease of the expression level of MMP-9 mRNA ([3]; 10 μM) [%],decrease in invasion compared to the DMSO-treated control (MDA-MB-231 cells [4]; 0.3 μM) [%],decrease in invasion compared to the DMSO-treated control (MDA-MB-231 cells [4]; 1 μM) [%],decrease in invasion compared to the DMSO-treated control (MDA-MB-231 cells [4]; 3 μM) [%],decrease in invasion compared to the DMSO-treated control (MDA-MB-231 cells [4]; 10 μM) [%],migration of MDA-MB-231 cells [5],number of live cells (growth inhibition) (HeLa cells)
CC(=O)Nc1cn(C)c(C(=O)Nc2cc(C(=O)NCCC(=O)Nc3cn(C)c(C(=O)Nc4cc(C(=O)Nc5cc(C(=O)NCCCC(=O)Nc6cn(C)c(C(=O)Nc7cn(C)c(C(=O)Nc8cc(C(=O)NCCC(=O)Nc9cn(C)c(C(=O)Nc%10cc(C(=O)NCCC(=O)NCCCN(C)C)n(C)c%10)n9)n(C)c8)n7)n6)n(C)c5)n(C)c4)n3)n(C)c2)n1 [HMMP9AP1],inhibited the migrations,decreased the number of live cells,84,54,38,26,90,52,44,25.4,inhibit the migration of MDA-MB-231 cells in a concentration-dependent manner,decreased the number of live cells
CC(=O)Nc1cc(C(=O)Nc2cc(C(=O)NCCC(=O)Nc3cc(C(=O)Nc4cc(C(=O)NCCCC(=O)Nc5cn(C)c(C(=O)Nc6cn(C)c(C(=O)NCCC(=O)Nc7cc(C(=O)Nc8cc(C(=O)NCCC(=O)NCCCN(C)C)n(C)c8)n(C)c7)n6)n5)n(C)c4)n(C)c3)n(C)c2)n(C)c1 [HMMP9NFκβ],inhibit the migration of HeLa cells in a concentration-dependent manner,decreased the number of live cells in a concentration-dependent manner,86,68,40,28,88,61,30,22,inhibit the migration of MDA-MB-231 cells in a concentration-dependent manner,decreased the number of live cells in a concentration-dependent manner
